Experimental data from patent publication US20170066717A1, “NEW PHENYLAZETIDINECARBOXYLATE OR -CARBOXAMIDE COMPOUNDS” (INVENTIVA, priority 2014, published 2017).
pEC50: −log10 of the molar value.

Legend:
NURR-1/RXRα = target: T1, NURR-1/RXRα (Homo sapiens, UniProt P19793); experiment: Transactivation test, NURR-1-Gal4/RXRα, luciferase reporter in Cos-7 cells; assay type: cell-based; settings: for Emax: COS-7, induction level relative to reference XCT0135908 at 2×10^−5 M (=100%), read-out: hNurr1_RXRaFL Emax (%); for pEC50: Cos-7 cells, NURR-1-Gal4/RXRα, luciferase reporter, read-out: hNurr1_RXRaFL EC50
T1 construct: expressed in transfected cells; host or cells: Cos-7 cells
T1 sequence (P19793 whole entry, the tested form may be a part): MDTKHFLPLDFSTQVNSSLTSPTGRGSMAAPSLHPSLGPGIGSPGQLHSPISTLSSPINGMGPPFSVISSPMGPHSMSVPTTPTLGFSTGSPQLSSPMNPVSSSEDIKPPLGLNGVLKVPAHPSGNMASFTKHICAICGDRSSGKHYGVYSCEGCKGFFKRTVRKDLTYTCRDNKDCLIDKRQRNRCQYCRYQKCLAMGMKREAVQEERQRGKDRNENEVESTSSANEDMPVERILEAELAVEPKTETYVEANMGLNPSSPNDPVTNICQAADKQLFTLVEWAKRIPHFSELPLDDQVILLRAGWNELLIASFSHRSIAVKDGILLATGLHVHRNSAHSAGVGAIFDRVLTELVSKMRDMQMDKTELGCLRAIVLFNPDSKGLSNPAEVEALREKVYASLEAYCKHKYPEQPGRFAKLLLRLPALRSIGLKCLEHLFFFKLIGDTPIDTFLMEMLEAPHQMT
T1 sequence (P43354 whole entry partner, the tested form may be a part): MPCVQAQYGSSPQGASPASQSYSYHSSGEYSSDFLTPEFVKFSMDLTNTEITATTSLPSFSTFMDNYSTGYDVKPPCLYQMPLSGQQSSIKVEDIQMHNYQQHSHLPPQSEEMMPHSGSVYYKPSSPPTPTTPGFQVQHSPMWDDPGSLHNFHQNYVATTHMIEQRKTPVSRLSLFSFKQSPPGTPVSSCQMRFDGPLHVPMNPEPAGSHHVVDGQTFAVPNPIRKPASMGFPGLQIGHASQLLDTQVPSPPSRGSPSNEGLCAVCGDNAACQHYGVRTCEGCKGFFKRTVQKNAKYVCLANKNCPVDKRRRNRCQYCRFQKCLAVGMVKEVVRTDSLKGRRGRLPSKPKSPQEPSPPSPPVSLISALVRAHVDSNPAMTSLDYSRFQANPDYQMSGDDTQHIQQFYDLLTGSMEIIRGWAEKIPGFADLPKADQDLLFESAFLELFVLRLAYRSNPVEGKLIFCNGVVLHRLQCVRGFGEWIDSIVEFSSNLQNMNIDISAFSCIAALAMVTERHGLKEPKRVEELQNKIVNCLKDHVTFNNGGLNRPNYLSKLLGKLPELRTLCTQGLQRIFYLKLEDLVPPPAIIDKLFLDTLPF
T1 sequence (P04386 1-147 partner limits assumed): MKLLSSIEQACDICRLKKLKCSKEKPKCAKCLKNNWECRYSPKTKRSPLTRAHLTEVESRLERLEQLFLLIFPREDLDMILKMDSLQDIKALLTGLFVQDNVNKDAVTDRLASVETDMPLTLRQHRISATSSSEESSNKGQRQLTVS
Procedure: (§1) The ability of the compounds according to the invention to behave as an activator of the heterodimers formed by the NURR-1 nuclear receptor and the RXR nuclear receptors was measured by means of an in vitro test. A transactivation test was used as primary selection (screening) test. Cos-7 cells were cotransfected with a plasmid expressing a chimera of the human NURR-1-Gal4 receptor, a plasmid expressing the human RXR receptor (RXRα or RXRγ receptor) and a 5Gal4pGL3-TK-Luc reporter plasmid. The transfctions were carried out using a chemical agent (Jet PEI). The transfected cells were distributed into 384-well plates and left to stand for 21 hours. At time 24 hours the culture medium was changed. The test products were added (final concentration of between 10^''4 and 3×10^-10 M) to the culture medium. After incubation overnight, the lucifeiase expression was measured after addition of SteadyGlo according to the instructions of the manufacturer (Promega). […] The induction levels (Emax) were calculated relative to the basal activity of each heterodimer.

NURR-1/RXRγ = target: T2, NURR-1/RXRγ (Homo sapiens, UniProt P48443); experiment: Transactivation test, NURR-1-Gal4/RXRγ, luciferase reporter in Cos-7 cells; assay type: cell-based; settings: for Emax: COS-7, induction level relative to reference XCT0135908 at 2×10^−5 M (=100%), read-out: hNurr1_RXRgFL Emax (%); for pEC50: Cos-7 cells, NURR-1-Gal4/RXRγ, luciferase reporter, read-out: hNurr1_RXRgFL EC50
T2 construct: expressed in transfected cells; host or cells: Cos-7 cells
T2 sequence (P48443 whole entry, the tested form may be a part): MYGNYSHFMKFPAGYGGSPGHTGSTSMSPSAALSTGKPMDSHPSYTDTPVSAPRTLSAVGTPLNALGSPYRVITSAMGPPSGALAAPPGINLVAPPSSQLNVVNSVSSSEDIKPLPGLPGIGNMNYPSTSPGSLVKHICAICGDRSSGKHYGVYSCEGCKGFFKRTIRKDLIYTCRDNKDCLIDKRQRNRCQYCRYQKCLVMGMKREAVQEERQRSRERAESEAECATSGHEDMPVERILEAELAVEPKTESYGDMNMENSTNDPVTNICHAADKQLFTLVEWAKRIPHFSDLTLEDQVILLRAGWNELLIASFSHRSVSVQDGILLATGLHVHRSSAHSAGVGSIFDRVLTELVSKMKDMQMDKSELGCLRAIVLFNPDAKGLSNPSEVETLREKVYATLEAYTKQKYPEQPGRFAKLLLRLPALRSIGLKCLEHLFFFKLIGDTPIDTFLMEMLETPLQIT
T2 sequence (P43354 whole entry partner, the tested form may be a part): as the sequence (P43354 whole entry partner, the tested form may be a part) above
T2 sequence (P04386 1-147 partner limits assumed): as the sequence (P04386 1-147 partner limits assumed) above
Procedure: as §1

[1] = induction level relative to reference XCT0135908 at 2×10^−5 M (=100%)

SMILES	Emax (NURR-1/RXRα) [%]	pEC50 (NURR-1/RXRα)	Emax (NURR-1/RXRγ) [%]	pEC50 (NURR-1/RXRγ)	hNurr1_RXRaFL Emax (%) (NURR-1/RXRα; [1])	hNurr1_RXRgFL Emax (%) (NURR-1/RXRγ; [1])
CC(C)Cc1ccc2c(c1)OC(C)(C)CN2c1cccc(N2CC(C(=O)O)C2)c1 [Example 231, tert-butylammonium 1-[3-(7-isobutyl-2,2-dimethyl-3H-1,4-benzoxazin-4yl)phenyl]azetidine-3-carboxylate]		6.50		6.10	58	66
O=C(O)C1CN(c2cccc(N3CCOc4cc(C(F)(F)F)ncc43)c2)C1 [Example 240, sodium 1-[3-[7-(trifluoromethyl)-2,3-dihydropurido[4,3][1,4]oxazin-4-yl]phenyl]azetidine-3-carboxylate]	98	5.74	83	5.49		
COc1ccc2c(ccn2-c2cc(C)cc(N3CC(C(=O)O)C3)c2)c1 [Example 47, 1-[3-(5-methoxyindol-1-yl)-5-methylphenyl]azetidine-3-carboxylic acid]	91	6.43	95	6.27		
CN(C)c1cc(C(F)(F)F)cc(-c2cccc(N3CC(C(=O)O)C3)c2)n1 [Example 80, 1-[3-[6-(dimethylamino)-4-(trifluoromethyl)2-pyridyl]phenyl]azetidine-3-carboxylic acid]	104	6.50	89	6.47		
CCC(CC)COc1ccc(C(F)(F)F)cc1-c1cccc(N2CC(C(=O)O)C2)c1 [Example 103, 1-[3-[2-(2-ethylbutoxy)-5-(trifluoromethyl)phenyl]phenyl]azetidine-3-carboxylic acid]	62	7.80	58	7.77		
Cc1cc(-c2cccc(N(C)C)c2)cc(N2CC(C(=O)O)C2)c1 [Example 26, 1-[3-[3-(dimethylamino)phenyl]-5-methylphenyl]azetidine-3-carboxylic acid]	108	6.91	116	6.50		
CN(C)CCNC(=O)C1CN(c2cccc(N3CC(C)(C)Oc4cc(C(F)(F)F)ccc43)c2)C1 [Example 279, N-3(2-dimethylaminoethyl)-1-[3-[2,2-dimethyl-7-(trifluoromethyl)-3H-1,4-benzoxazin-4-yl]phenyl]azetidine-3-carboxamide]	95	6.43	79			
O=C(O)C1CN(c2cccc(-c3cnc(Cl)c(C(F)(F)F)c3)c2)C1 [Example 77, 1-[3-[6-chloro-5-(trifluoromethyl)-3-pyridyl]phenyl]azetidine-3-carboxylic acid]	67	6.37	105	5.92		
Cc1cc(-c2cccc(C(C)(C)O)c2)cc(N2CC(C(=O)O)C2)c1 [Example 20, 1-[3-[3-(1-hydroxy-1-methylethyl)phenyl]-5-methylphenyl]azetidine-3-carboxylic acid]	87	5.68	69	< 5.30		
CC(C)(C)c1cccc(-c2cccc(N3CC(C(=O)O)C3)c2)n1 [Example 31, 2-tert-butyl-6-[3-(3-carboxyazetidine-1-yl)phenyl]pyridiuium chlrodie]	62	6.82	59	6.40		
Cc1cc(N2CC(C(=O)O)C2)cc(S(=O)(=O)n2cc(C)c3cc(C(F)(F)F)ccc32)c1 [Example 60, 1-[3-methyl-5-[3-methyl-5-(trifluoromethyl)indol-1-yl]sulfonylphenyl]azetidine-3-carboxylic acid]	40	6.05	24	5.77		

The remaining compounds from weak to strong by pEC50 (NURR-1/RXRα), led by results:

Emax (NURR-1/RXRα) [%]	pEC50 (NURR-1/RXRα)	Emax (NURR-1/RXRγ) [%]	pEC50 (NURR-1/RXRγ)	hNurr1_RXRaFL Emax (%) (NURR-1/RXRα; [1])	hNurr1_RXRgFL Emax (%) (NURR-1/RXRγ; [1])	SMILES
96	7.43	129	6.91			COc1ccc2c(c1)c(C)cn2-c1cc(C)cc(N2CC(C(=O)O)C2)c1 [Example 48, 1-[3-(5-methoxy-3-methylindol-1-yl)-5-methylphenyl]azetidine-3-carboxylic acid]
105	7.49	102	6.94			O=C(O)C1CN(c2cccc(-c3cc(F)cc(C(F)(F)F)c3)c2)C1 [Example 13, 1-[3-[3-fluoro-5-(trifluoromethyl)phenyl]phenyl]azetidine-3-carboxylic acid]
115	7.72	94	7.57			CC1(C)CN(c2cccc(N3CC(C(=O)O)C3)c2)c2ccc(Br)cc2O1 [Example 222, sodium 1-[3-(7-bromo-2,2-dimethyl-3H-1,4-benzoxazin-4-yl)phenyl]azetidine-3-carbxoylate]
104	7.72	130	7.51			Cc1cn(-c2cccc(N3CC(C(=O)O)C3)c2)c2ccc(C3CC3)cc12 [Example 46]
115	7.85	133	6.84			Cc1cn(-c2cccc(N3CC(C(=O)NCC(F)(F)F)C3)c2)c2ccc(C(F)(F)F)cc12 [Example 178, 1-[3-[3-methyl-5-(trifluoromethyl)indol-1-yl]phenyl]-N-(2,2,2-trifluoromethyl)azetidine-3-carboxamide]
101	7.89	97	7.80			Cc1cc(-c2cccc(C(C)C)c2)cc(N2CC(C(=O)O)C2)c1 [Example 3, 1-[3-(3-isopropylphenyl)-5-methylphenyl]azetidine-3-carboxylate acid]
122	7.92	133	7.89			O=C(O)C1CN(c2cccc(N3C(=O)C4(CCC4)Oc4cc(C(F)(F)F)ccc43)c2)C1 [Example 121, 1-[3-[3-oxo-7-(trifluromethyl)spiro[3H1,4-benzoxazine-2,1′-cyclobutane]-4yl]phenyl]azetidine-3-carboxylic acid]
113	7.92	130	7.55			Cc1cn(-c2cccc(N3CC(C(=O)NCCN4CCNC4=O)C3)c2)c2ccc(C(F)(F)F)cc12 [Example 176, 1-[3-[3-methyl-5-(trifluoromethyl)indol-1-yl]-phenyl]N-[2-(2-oximidazolidin-1-yl)ethyl]azetidine-3-carboxamide]
123	8.15	125	8.05			Cc1cn(-c2cccc(N3CC(C(=O)NC4COC4)C3)c2)c2ccc(C(F)(F)F)cc12 [Example 163, 1-[3-[3-methyl-5-(trifluoromethyl)indol-1-yl]phenyl]-N-(oxetan-3-yl)azetidine-3-carboxamide]
117	8.40	113	8.52			O=C(O)C1CN(c2cccc(-n3cc(CC4CCCC4)c4cc(C(F)(F)F)ccc43)c2)C1 [Example 127, 1-[3-[3-(cyclopentylmethyl)-5-(trifluoromethyl)indol-1-yl]phenyl]azetidine-3-carboxylic acid]
120	8.52	114	8.22			Cc1cn(-c2cccc(N3CC(C(=O)NCC(O)CO)C3)c2)c2ccc(C(F)(F)F)cc12 (stereo not drawn) [Example 157, N-(2,3-dihydroxypropyl)-1-[3-[3-methyl-5-(trifluoromethyl)indol-1-yl]phenyl]azetidine-3-carboxamide]
